# Results: patent US8796463B2 (priority 2009, dated 2014)
# Where “and” joins values, the source holds several entries; their conditions need not be identical. Identical values can stand only once.
# How the values were obtained:
# [1] = log P by HPLC on reversed phase columns (EEC directive 79/831 Annex V.A8); assay type: physicochemical; conditions: for chromatographic logP: reversed phase HPLC column, pH 2.7, formic acid eluent, reported in preparation example, read-out: log P(HCOOH)
# Protocol: Measurement of log P values was performed according EEC directive 79/831 Annex V.A8 by HPLC (High Performance Liquid Chromatography) on reversed phase columns with the following method:
# measurement of LC-MS was done at pH 2.7 with 0.1% formic acid in water and with acetonitrile (contains 0.1% formic acid) as eluent with a linear gradient from 10% acetonitrle to 95% acetonitrile.
# Calibration was done with not branched alkan2-ones (with 3 to 16 carbon atoms) with known log P-values (measurement of log P values using retention times with linear interpolation between successive alkanones). lambda-maX-values were determined using UV-spectra from 200 nm to 400 nm and the peak values of the chromatographic signals.
# [2] = test system: Pythium ultimum; assay: Pythium test (cotton) / seed treatment; assay type: in vivo; conditions: 10 g/dt seed of active ingredient, emerged seedlings after 7 days
# Protocol: Pythium Test (Cotton)/Seed Treatment
# The test is performed under greenhouse conditions.
# Cotton seeds, treated with the active compound or compound combinations, solved in N-methyl-2-pyrrolidon and diluted with water to the desired dosages, were sown in 6*6 cm pots containing 4 cm of a 1:1 mix of steamed field soil and sand.
# Perlite was incubated with mycelium fragments of Pythium ultimum. 1 ml of infected perlite was scattered between the treated cotton seeds. Seeds were then covered by light expanded clay aggregate. Pots were incubated in the greenhouse 7 days at 20° C. and 80% relative humidity.
# Assessment consisted of counting of emerged seedlings. 0% means an efficacy which corresponds to that of the control, while an efficacy of 100% means that all seedlings have emerged.
# [3] = test system: Plasmopara viticola; assay: Plasmopara test (grapevines) / preventive; assay type: in vivo; conditions: preventive spray, 10 ppm of active ingredient, evaluated 6 days after inoculation
# Protocol: Plasmopara Test (Grapevines)/Preventive
# To produce a suitable preparation of active compound, 1 part by weight of active compound is mixed with the stated amounts of solvent and emulsifier, and the concentrate is diluted with water to the desired concentration.
# To test for preventive activity, young plants are sprayed with the preparation of active compound at the stated rate of application. After the spray coating has dried on, the plants are inoculated with an aqueous spore suspension of Plasmopara viticola and then remain for 1 day in an incubation cabinet at approximately 20° C. and a relative atmospheric humidity of 100%. The plant is subsequently placed for 4 days in a greenhouse at approximately 21° C. and a relative atmospheric humidity of approximately 90%. The plants are then misted and placed for 1 day in an incubation cabinet.
# The test is evaluated 6 days after the inoculation. 0% means an efficacy which corresponds to that of the untreated control, while an efficacy of 100% means that no disease is observed.
# [4] = test system: Phytophthora infestans; assay type: in vivo; conditions: tomato, preventive spray, 100 ppm of active ingredient, evaluated 7 days after inoculation
SMILES,chromatographic logP [1],Efficacy % [2] [%],Efficacy % [3],Efficacy % [4] [%],"logp ([1]; pH 2.7, 0.1% formic acid in water / acetonitrile gradient)"
"Cn1nnnc1C(=NOCc1csc(NC(=O)C2CCc3ccccc3O2)n1)c1ccccc1 (stereo not drawn) [Example 10, N-{4-[({[(1-methyl-1H-tetrazol-5-yl)(phenyl)methylene]amino}oxy)methyl]-1,3-thiazol-2-yl}chromane-2-carboxamide]",3.78,86,100%,100,–
Cn1nnnc1C(=NOCc1csc(NC(=O)C2COc3ccccc3O2)n1)c1ccccc1 (stereo not drawn) [Example 11],–,77,98%,95,3.46
"Cn1nnnc1C(=NOCc1cccc(NC(=O)C2Cc3ccccc3O2)n1)c1ccccc1 (stereo not drawn) [Example 41, N-{6-[({[(1-methyl-1H-tetrazol-5-yl)(phenyl)methylene]amino}oxy)methyl]pyridin-2-yl}-2,3-dihydro-1-benzofuran-2-carboxamide]",3.67,92,97% and 91%,89,–
